This assay addresses T1, human F508del CFTR (Homo sapiens, UniProt P13569, DEL508-508).
T1 construct: expressed in transfected cells; host or cells: Fisher Rat Thyroid (FRT) cells
Briefly: CFTR-YFP High Throughput Assay. The following applies: FRT cells expressing human F508del CFTR and YFP; for Emax: EMax normalized to the positive control, read-out: % Efficacy. It is filed as cell-based. An outline of the steps:
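FRT cells stably co-expressing human F508del CFTR and halide-sensitive YFP-H148Q/I152L; for correction, compound (2 nM-40 μM) incubated 24-26 h at 37° C, washed, then stimulated 60-120 min at RT with 20 μM forskolin plus 30 μM potentiator P3. Iodide-induced YFP quench (Ex 500/Em 540 nm) recorded; quench rates least-squares fitted.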

A word on the EC50: it is the concentration giving half of the maximal effect.

A value given as a limit tells only on which side of the number the result lay.

T1 sequence (P13569 with tags, fused parts or gaps DEL508-508): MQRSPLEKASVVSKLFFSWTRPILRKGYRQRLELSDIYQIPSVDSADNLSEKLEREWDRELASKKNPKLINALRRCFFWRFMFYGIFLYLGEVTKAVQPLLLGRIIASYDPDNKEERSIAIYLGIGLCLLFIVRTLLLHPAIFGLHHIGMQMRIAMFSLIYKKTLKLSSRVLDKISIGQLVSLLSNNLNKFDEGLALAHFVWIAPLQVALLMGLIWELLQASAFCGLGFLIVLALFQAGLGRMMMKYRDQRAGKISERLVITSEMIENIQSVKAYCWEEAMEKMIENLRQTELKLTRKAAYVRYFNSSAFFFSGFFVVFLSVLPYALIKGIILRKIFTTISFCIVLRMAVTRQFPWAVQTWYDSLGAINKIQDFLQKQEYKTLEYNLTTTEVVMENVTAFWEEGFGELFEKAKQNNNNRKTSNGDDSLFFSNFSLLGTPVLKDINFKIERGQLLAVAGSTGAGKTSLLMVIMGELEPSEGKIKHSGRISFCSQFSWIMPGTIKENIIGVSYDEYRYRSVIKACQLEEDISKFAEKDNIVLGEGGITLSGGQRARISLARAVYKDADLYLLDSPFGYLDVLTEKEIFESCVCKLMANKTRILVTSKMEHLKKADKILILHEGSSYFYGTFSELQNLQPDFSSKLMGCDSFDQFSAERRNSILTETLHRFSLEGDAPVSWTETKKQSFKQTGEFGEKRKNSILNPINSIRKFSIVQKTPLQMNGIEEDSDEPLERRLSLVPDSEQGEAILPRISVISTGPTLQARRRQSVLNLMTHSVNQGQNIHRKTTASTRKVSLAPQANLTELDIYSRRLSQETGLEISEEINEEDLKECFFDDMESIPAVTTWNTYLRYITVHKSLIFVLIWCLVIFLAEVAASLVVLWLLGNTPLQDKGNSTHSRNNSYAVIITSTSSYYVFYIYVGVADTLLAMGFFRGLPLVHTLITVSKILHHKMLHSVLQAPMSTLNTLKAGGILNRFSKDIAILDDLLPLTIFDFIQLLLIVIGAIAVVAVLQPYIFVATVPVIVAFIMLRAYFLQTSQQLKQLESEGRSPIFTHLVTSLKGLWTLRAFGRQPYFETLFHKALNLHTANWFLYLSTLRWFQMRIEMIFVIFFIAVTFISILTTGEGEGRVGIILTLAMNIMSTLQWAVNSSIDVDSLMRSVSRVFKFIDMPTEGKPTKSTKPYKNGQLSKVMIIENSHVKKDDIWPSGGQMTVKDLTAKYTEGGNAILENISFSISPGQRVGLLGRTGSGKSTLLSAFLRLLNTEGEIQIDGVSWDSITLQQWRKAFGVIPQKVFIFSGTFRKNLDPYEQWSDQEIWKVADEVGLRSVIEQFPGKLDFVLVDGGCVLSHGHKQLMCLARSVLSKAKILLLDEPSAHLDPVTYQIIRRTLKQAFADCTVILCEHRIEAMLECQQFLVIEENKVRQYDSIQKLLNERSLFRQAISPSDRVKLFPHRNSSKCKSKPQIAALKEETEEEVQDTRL

`CCN(C(=O)Cn1ncc2c(c1=O)c1ccccc1n2Cc1cccnc1)c1ccc2c(c1)OC(F)(F)O2` [Example 140, N-(2,2-difluorobenzo[d][1,3]dioxol-5-yl)-N-ethyl-2-(1-oxo-5-(pyridin-3-ylmethyl)-1H-pyridazino[4,5-b]indol-2(5H)-yl)acetamide]: the Emax fell in the range of 30 to 80%.

For the compound `CCOC(=O)c1ccc2c(-c3cccc(F)c3)nn(CC(=O)N(C)c3ccc4nc(C)oc4c3)c(=O)c2c1` [Example 67, ethyl 1-(3-fluorophenyl)-3-(2-(methyl(2-methyl-benzo[d]oxazol-6-yl)amino)-2-oxoethyl)-4-oxo-3,4-dihydrophthalazine-6-carboxylate], the Emax lay in the range of 30 to 80% and the EC50 was under 10 µM.

For the compound `CCN(C(=O)c1nn(-c2nc3ccccc3n2C)c(=O)c2c1c1ccccc1n2C)c1ccccc1` [Example 173, N-ethyl-5-methyl-3-(1-methyl-1H-benzo[d]imidazol-2-yl)-4-oxo-N-phenyl-4,5-dihydro-3H-pyridazino[4,5-b]indole-1-carboxamide], the Emax fell in the range of 10 to 30%.

Turning to `CCN(C(=O)c1nn(C[C@@H](O)COCc2ccccc2)c(=O)c2c1c1ccccc1n2C)c1ccccc1` [Example 230, (R)-3-(3-(benzyloxy)-2-hydroxypropyl)-N-ethyl-5-methyl-4-oxo-N-phenyl-4,5-dihydro-3H-pyridazino[4,5-b]indole-1-carboxamide], the Emax was 30 to 80% and the EC50 was under 10 µM.

With `CCN(C(=O)c1nn(C)c(=O)c2c1c1ccccc1n2C)c1ccc2c(c1)OC(F)(F)O2` [Example 211, N-(2,2-difluorobenzo[d][1,3]dioxol-5-yl)-N-ethyl-3,5-dimethyl-4-oxo-4,5-dihydro-3H-pyridazino[4,5-b]indole-1-carboxamide], the Emax lay in the range of 30 to 80% and the EC50 is under 10 µM.

As for `CCN(C(=O)c1nn(C2CCN(S(=O)(=O)c3ccc4c(c3)OC(F)(F)O4)CC2)c(=O)c2c1c1ccccc1n2C)c1ccccc1` [Example 200, 3-(1-((2,2-difluorobenzo[d][1, 3]dioxol-5-yl)sulfonyl)piperidin-4-yl)-N-ethyl-5-methyl-4-oxo-N-phenyl-4,5-dihydro-3H-pyridazino[4,5-b]indole-1-carboxamide], the Emax is 30 to 80% and the EC50 was under 10 µM.

For the compound `CCc1ccc(N(CC)C(=O)Cn2nc(-c3ccc(C(N)=O)cc3)c3ccccc3c2=O)cc1` [Example 12, 4-(3-(2-(ethyl(4-ethylphenyl)amino)-2-oxoethyl)-4-oxo-3,4-dihydrophthalazin-1-yl)benzamide], the Emax is 30 to 80% and the EC50 is over 20 µM.

On to `CCN(C(=O)Cn1nc(Cc2cccnc2)c2c(OC)cccc2c1=O)c1ccc2c(c1)OC(F)(F)O2` [Example 56, N-(2,2-difluorobenzo[d][1,3]dioxol-5-yl)-N-ethyl-2-(5-methoxy-1-oxo-4-(pyridin-3-ylmethyl)phthalazin-2(1H)-yl)acetamide], for which the Emax fell in the range of 30 to 80%.

Turning to `CCN(C(=O)Cn1ncc2c(c1=O)c1ccccc1n2Cc1ccncc1)c1ccc2c(c1)OC(F)(F)O2` [Example 143, N-(2,2-difluorobenzo[d][1,3]dioxol-5-yl)-N-ethyl-2-(1-oxo-5-(pyridin-4-ylmethyl)-1H-pyridazino[4,5-b]indol-2(5H)-yl)acetamide], the Emax was in the range of 30 to 80%.

For the compound `CCc1ccc(N(CC)C(=O)Cn2nc(-c3ccc(S(C)(=O)=O)cc3)c3ccccc3c2=O)cc1` [Example 16, N-ethyl-N-(4-ethylphenyl)-2-(4-(4-(methylsulfanoyl)phenyl)-1-oxophthalazin-2(1H)-yl)acetamide], the Emax is 30 to 80% and the 50% effective concentration (EC50) was under 10 µM.

As to `CCN(C(=O)Cn1nc(C(=O)N(CC)c2ccccc2C#N)c2ccccc2c1=O)c1ccc2c(c1)OC(F)(F)O2` [Example 129, N-(2-cyanophenyl)-3-(2-((2,2-difluorobenzo[d][1,3]dioxol-5-yl)(ethyl)amino)-2-oxoethyl)-N-ethyl-4-oxo-3,4-dihydrophthalazine-1-carboxamide], the Emax was in the range of 30 to 80% and the EC50 was in the range of 10 to 20 µM.

`COc1ccc(N(C)C(=O)Cn2nc(Cc3cccnc3)c3ccccc3c2=O)cc1` [Example 27, N-(4-methoxyphenyl)-N-methyl-2-(1-oxo-4-(pyridin-3-ylmethyl)phthalazin-2(1H)-yl)acetamide]: the Emax was in the range of 30 to 80%.

For `CCN(C(=O)Cn1nc(Cc2cccnc2)c2ccc(C(C)(C)C)cc2c1=O)c1ccc2c(c1)OC(F)(F)O2` [Example 50, 2-(7-(tert-butyl)-1-oxo-4-(pyridin-3-ylmethyl)phthalazin-2(1H)-yl)-N-(2,2-difluorobenzo[d][1,3]dioxol-5-yl)-N-ethylacetamide], the Emax was over 80%.

For `[2H]C([2H])([2H])N(C(=O)Cn1nc(-c2cccc(C#N)c2)c2ccc(OC)cc2c1=O)c1ccc2nc(C)oc2c1` [Example 86, 2-(4-(3-cyanophenyl)-7-methoxy-1-oxophthalazin-2(1H)-yl)-N-(methyl-d3)-N-(2-methylbenzo[d]oxazol-6-yl)acetamide], the Emax was over 80% and the EC50 is under 10 µM.

As for `CCN(C(=O)Cn1nc(-c2cccc(C#N)c2)c2ccccc2c1=O)c1ccc2c(c1)OC(F)(F)O2` [Example 21, 2-(4-(3-cyanophenyl)-1-oxophthalazin-2(1H)-yl)-N-(2,2-difluorobenzo[d][1,3]dioxol-5-yl)-N-ethylacetamide], the Emax is over 80% and the EC50 is under 10 µM.

For `CCN(C(=O)c1nn(-c2ccc(C)cc2)c(=O)c2c1c1ccccc1n2C)c1cc(Cl)ccc1C(=O)O` [Example 183, 4-chloro-2-(N-ethyl-5-methyl-4-oxo-3-(p-tolyl)-4,5-dihydro-3H-pyridazino[4,5-b]indole-1-carboxamido)benzoic acid], the Emax was in the range of 30 to 80%.

In the case of `CCc1ccc(N(CC)C(=O)Cn2nc(-c3cccnc3)c3ccccc3c2=O)cc1` [Example 3, N-ethyl-N-(4-ethylphenyl)-2-(1-oxo-4-(pyridin-3-yl)phthalazin-2(1H)-yl)acetamide], the Emax is 30 to 80%.

As for `COc1ccc2c(-c3ccc(S(N)(=O)=O)cc3)nn(CC(=O)N(c3ccc4c(c3)OC(F)(F)O4)C(C)C)c(=O)c2c1` [Example 76, N-(2,2-difluorobenzo[d][1,3]dioxol-5-yl)-N-isopropyl-2-(7-methoxy-1-oxo-4-(4-sulfamoylphenyl)phthalazin-2(1H)-yl)acetamide], the Emax is over 80%.

Turning to `CCN(C(=O)c1nn(-c2ccc(C)cc2)c(=O)c2c1c1sc(C)cc1n2C)c1ccccc1` [Example 245, N-ethyl-2,4-dimethyl-5-oxo-N-phenyl-6-(p-tolyl)-5,6-dihydro-4H-thieno[2′,3′:4,5]pyrrolo[2,3-d]pyridazine-8-carboxamide], the Emax is 10 to 30% and the EC50 is under 10 µM.

Take `CCc1ccc(N(CC)C(=O)Cn2nc(-c3cccc(C#N)c3)c3ccccc3c2=O)cc1` [Example 17, 2-(4-(3-cyanophenyl)-1-oxophthalazin-2(1H)-yl)-N-ethyl-N-(4-ethylphenyl)acetamide]: the Emax lay in the range of 30 to 80% and the EC50 was under 10 µM.

Take `CCOC(=O)c1ccc2c(=O)n(CC(=O)N(C)c3ccc4nc(C)oc4c3)nc(-c3cccc(F)c3)c2c1` [Example 68, ethyl 4-(3-fluorophenyl)-2-(2-(methyl(2-methyl-benzo[d]oxazol-6-yl)amino)-2-oxoethyl)-1-oxo-1,2-dihydrophthalazine-6-carboxylate]: the Emax lay in the range of 30 to 80% and the 50% effective concentration (EC50) is under 10 µM.

As for `CCN(C(=O)Cn1nc(-c2ccc(C(=O)O)cc2)c2ccccc2c1=O)c1ccc2c(c1)OC(F)(F)O2` [Example 20, 4-(3-(2-((2,2-difluorobenzo[d][1,3]dioxol-5-yl)(ethyl)amino)-2-oxoethyl)-4-oxo-3,4-dihydrophthalazin-1-yl)benzoic acid], the Emax was in the range of 30 to 80% and the EC50 was over 20 µM.

With `CCN(C(=O)c1nn(C2CCOCC2)c(=O)c2c1c1ccccc1n2C)c1ccccc1` [Example 185, N-ethyl-5-methyl-4-oxo-N-phenyl-3-(tetrahydro-2H-pyran-4-yl)-4,5-dihydro-3H-pyridazino[4,5-b]indole-1-carboxamide], the Emax is 30 to 80% and the EC50 was under 10 µM.

`CCN(C(=O)Cn1nc(Cc2cccnc2)c2c3ccccc3n(C)c2c1=O)c1ccc2c(c1)OC(F)(F)O2` [Example 238, N-(2,2-difluorobenzo[d][1, 3]dioxol-5-yl)-N-ethyl-2-(5-methyl-4-oxo-1-(pyridin-3-ylmethyl)-4,5-dihydro-3H-pyridazino[4,5-b]indol-3-yl)acetamide]: the Emax lay within 30 to 80% and the EC50 is under 10 µM.

On to `CCN(C(=O)c1nn(-c2ccc(C)cc2)c(=O)c2c1c1cc(OC)ccc1n2C)c1ccccc1` [Example 187, N-ethyl-8-methoxy-5-methyl-4-oxo-N-phenyl-3-(p-tolyl)-4,5-dihydro-3H-pyridazino[4,5-b]indole-1-carboxamide], for which the Emax fell in the range of 30 to 80% and the EC50 was over 20 µM.

Turning to `CCN(C(=O)Cn1nc(-c2ccc(C(N)=O)cc2)c2ccccc2c1=O)c1ccc2c(c1)OC(F)(F)O2` [Example 19, 4-(3-(2-((2,2-difluorobenzo[d][1,3]dioxol-5-yl)(ethyl)amino)-2-oxoethyl)-4-oxo-3,4-dihydrophthalazin-1-yl)benzamide], the Emax is over 80% and the EC50 is 10 to 20 µM.

Regarding `CCc1ccc(N(CC)C(=O)Cn2nc(Cc3cccnc3)c3c(C)cccc3c2=O)cc1` [Example 31, N-ethyl-N-(4-ethylphenyl)-2-(5-methyl-1-oxo-4-(pyridin-3-ylmethyl)phthalazin-2(1H)-yl)acetamide], the Emax was in the range of 30 to 80%.

These data come from patent US10370366B2 (Flatley Discovery Lab, LLC, priority 2013, dated 2019).
